Bridge positions count the residues as written; N and C are the ends. Square brackets hold non-standard residues; d marks the D form. Peptide text beside a SMILES is read from it. S8 = C=CCCCCCC[C@](C)(N)C(=O)O; R5 = C=CCCC[C@@](C)(N)C(=O)O
Experiments:
[1] = test system: RKO; experiment: Cell viability assay (MTT), RKO; settings: read-out: RKO EC50 (72 h)
[2] = test system: Caspase 3; experiment: Caspase 3 detection assay in SJSA1 cells; assay type: cell-based; settings: SJSA1, 48 h, Caspase 3 activation over DMSO-treated cells
[3] = test system: SJSA-1; experiment: Cell viability assay (MTT), SJSA-1; settings: read-out: SJSA-1 EC50 (72 h); 72 h, MTT
[4] = test system: SJSA-1 cells; experiment: Cell lysis by peptidomimetic macrocycles (LDH release); assay type: cell-based; settings: SJSA-1, 1 h
In short: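 Membrane lysis measured as supernatant LDH after a 1 h, 37 °C exposure of SJSA-1 cells, held in RPMI with 1% FBS, to macrocycles at final 6.25-50 μM with 0.5% DMSO. Lytic references were 10 μM melittin and 1% Triton X-100; DMSO alone served as non-lytic control.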

[5] = Circular dichroism (CD) analysis of alpha-helicity; assay type: physicochemical
Description: Peptide solutions were analyzed by CD spectroscopy using a Jasco J-815 spectropolarimeter (Jasco Inc., Easton, Md.) with the Jasco Spectra Manager Ver. 2 system software. A Peltier temperature controller was used to maintain temperature control of the optical cell. Results are expressed as mean molar ellipticity (deg cm^2 dmol^−1) as calculated from the equation [0]=θobs·MRW/10*l*c where θobs is the observed ellipticity in millidegrees, MRW is the mean residue weight of the peptide (peptide molecular weight/number of residues), 1 is the optical path length of the cell in centimeters, and c is the peptide concentration in mg/ml. Peptide concentrations were determined by amino acid analysis. Stock solutions of peptides were prepared in benign CD buffer (20 mM phosphoric acid, pH 2). The stocks were used to prepare peptide solutions of 0.05 mg/ml in either benign CD buffer or CD buffer with 50% trifluoroethanol (TFE) for analyses in a 10 mm pathlength cell. Variable wavelength measurements of peptide solutions were scanned at 4° C. from 195 to 250 nm, in 0.2 nm increments, and a scan rate 50 nm per minute. The average of six scans was reported.

SMILES	EC50 [1]	caspase 3 μM [2]	caspase 10 μM [2]	caspase 30 μM [2]	EC50 [3]	6.25 μM % Lysed cells (1 h LDH) [4]	25 μM % Lysed cells (1 h LDH) [4]	50 μM % Lysed cells (1 h LDH) [4]	also measured
CC[C@H](C)[C@H](NC(=O)[C@H](C)NC(=O)[C@H](C)NC(=O)[C@]1(C)CCCC=CCCCCCC[C@@](C)(NC(=O)[C@H](Cc2ccccc2)NC(=O)[C@@H](NC(=O)[C@H](CC(C)C)NC(C)=O)[C@@H](C)O)C(=O)N[C@@H](C)C(=O)N[C@@H](Cc2ccc(O)cc2)C(=O)N[C@@H](Cc2c[nH]c3ccccc23)C(=O)N[C@@H](C)C(=O)N[C@@H](CCC(N)=O)C(=O)N[C@@H](CC(C)C)C(=O)N1)C(=O)N[C@@H](C)C(N)=O (single isomer, unassigned) [compound 65]	5 to 15 µM	6	28	34	< 5 µM	0%	0%	2%	caspase 0.3 μM [2]: 1
CC[C@H](C)[C@H](NC(=O)[C@H](C)NC(=O)[C@H](C)NC(=O)[C@]1(C)CCCC=CCCCCCC[C@@](C)(NC(=O)[C@H](Cc2ccccc2)NC(=O)[C@@H](NC(=O)[C@H](CC(C)C)NC(C)=O)[C@@H](C)O)C(=O)N[C@@H](C)C(=O)N[C@@H](Cc2ccc(O)cc2)C(=O)N[C@@H](Cc2c[nH]c3ccccc23)C(=O)N[C@@H](C)C(=O)N[C@@H](CCC(N)=O)C(=O)N[C@@H](CC(C)C)C(=O)N1)C(=O)N[C@H](C)C(N)=O (single isomer, unassigned) [compound 70]	< 5 µM	1	9	26	< 5 µM	–	–	–	–
CCCC[C@H](NC(=O)[C@H](C)NC(=O)[C@H](C)NC(=O)[C@]1(C)CCCC=CCCCCCC[C@@](C)(NC(=O)[C@H](Cc2ccccc2)NC(=O)[C@@H](NC(=O)[C@H](CC(C)C)NC(C)=O)[C@@H](C)O)C(=O)N[C@@H](C)C(=O)N[C@@H](Cc2ccc(O)cc2)C(=O)N[C@@H](Cc2c[nH]c3ccccc23)C(=O)N[C@@H](C)C(=O)N[C@@H](CCC(N)=O)C(=O)N[C@@H](CC(C)C)C(=O)N1)C(=O)N[C@H](C)C(N)=O (single isomer, unassigned) [compound 75]	–	–	–	–	< 5 µM	−1%	1%	1%	–
CC(=O)N[C@@H](CC(C)C)C(=O)N[C@H](C(=O)N[C@@H](Cc1ccccc1)C(=O)N[C@]1(C)CCCCCCC=CCCC[C@@](C)(C(=O)N[C@@H](C)C(=O)N[C@@H](C)C(=O)N[C@@H](C)C(=O)N[C@@H](C)C(=O)N[C@@H](C)C(=O)N[C@H](C)C(N)=O)NC(=O)[C@H](CC(C)C)NC(=O)[C@H](CCC(N)=O)NC(=O)[C@H](C)NC(=O)[C@H](Cc2c[nH]c3ccccc23)NC(=O)[C@H](Cc2ccc(O)cc2)NC(=O)[C@H](CCC(=O)O)NC1=O)[C@@H](C)O (single isomer, unassigned) [compound 579]	–	–	–	–	< 5 µM	–	–	–	–
CCCC[C@H](NC(=O)[C@H](C)NC(=O)[C@H](C)NC(=O)[C@]1(C)CCC/C=C/CCCCCC[C@@](C)(NC(=O)[C@H](Cc2ccccc2)NC(=O)[C@@H](NC(=O)[C@H](CC(C)C)NC(C)=O)[C@@H](C)O)C(=O)N[C@@H](C)C(=O)N[C@@H](Cc2ccc(O)cc2)C(=O)N[C@@H](Cc2c[nH]c3ccccc23)C(=O)N[C@@H](C)C(=O)N[C@@H](CCC(N)=O)C(=O)N[C@@H](CC(C)C)C(=O)N1)C(=O)N[C@@H](C)C(N)=O [compound 69]	< 5 µM	16.39	26.59	26.11	< 5 µM	1%	−0.5%	5%	caspase 0.3 μM [2]: 4.34; caspase 1 μM [2]: 9.51; % Helix 50% TFE compared to 50% TFE parent (CD) ([5]; 50% TFE): 148.2%; Molar Ellipticity TFE − Molar Ellipticity Benign ([5]; 222 nm): −21407.1 deg cm^2 dmol^−1; Molar Ellipticity 50% TFE (222 in 50% TFE) ([5]; 222 nm, CD buffer with 50% TFE, 0.05 mg/ml, 4° C.): −21509.7 deg cm^2 dmol^−1; Molar Ellipticity Benign (222 in 0% TFE) ([5]; 222 nm, benign CD buffer (20 mM phosphoric acid, pH 2), 0.05 mg/ml, 4° C.): −102.6 deg cm^2 dmol^−1; % Helix benign compared to 50% TFE parent (CD) ([5]; benign buffer): 0.7%
CC[C@H](C)[C@H](NC(=O)[C@H](C)NC(=O)[C@H](C)NC(=O)[C@]1(C)CCCCCCC=CCCC[C@@](C)(NC(=O)[C@H](Cc2ccccc2)NC(=O)[C@@H](NC(=O)[C@H](CC(C)C)NC(C)=O)[C@@H](C)O)C(=O)N[C@@H](C)C(=O)N[C@@H](Cc2ccc(O)cc2)C(=O)N[C@@H](Cc2c[nH]c3ccccc23)C(=O)N[C@@H](C)C(=O)N[C@@H](CCC(N)=O)C(=O)N[C@@H](CC(C)C)C(=O)N1)C(=O)N[C@H](C)C(N)=O [compound 234]	–	–	–	–	< 5 µM	–	–	–	–
CC(=O)N[C@@H](CC(C)C)C(=O)N[C@H](C(=O)N[C@@H](Cc1ccccc1)C(=O)N[C@]1(C)CCCCCC/C=C/CCC[C@@](C)(C(=O)N[C@@H](C)C(=O)N[C@@H](C)C(=O)N[C@@H](C)C(=O)N[C@@H](C)C(=O)N[C@@H](C)C(=O)N[C@H](C)C(N)=O)NC(=O)[C@H](CC(C)C)NC(=O)[C@H](CCC(N)=O)NC(=O)[C@H](C)NC(=O)[C@H](Cc2c[nH]c3ccccc23)NC(=O)[C@H](Cc2ccc(O)cc2)NC(=O)[C@H](CCC(=O)O)NC1=O)[C@@H](C)O [compound 331]	< 5 µM	11	14.5	30.5	< 5 µM	0%	0%	0%	caspase 0.3 μM [2]: 4.5; caspase 1 μM [2]: 8
CC(=O)N[C@@H](CC(C)C)C(=O)N[C@H](C(=O)N[C@@H](Cc1ccccc1)C(=O)N[C@]1(C)CCCCCCC=CCCC[C@@](C)(C(=O)N[C@@H](C)C(=O)N[C@H](C)C(=O)N[C@@H](C)C(=O)N[C@@H](C)C(=O)N[C@@H](C)C(=O)N[C@H](C)C(N)=O)NC(=O)[C@H](CC(C)C)NC(=O)[C@H](CCC(N)=O)NC(=O)[C@H](C)NC(=O)[C@H](Cc2c[nH]c3ccccc23)NC(=O)[C@H](Cc2ccc(O)cc2)NC(=O)[C@H](CCC(=O)O)NC1=O)[C@@H](C)O [compound 568]	–	–	–	–	5 to 15 µM	–	–	–	–
CC(=O)N[C@@H](CC(C)C)C(=O)N[C@H](C(=O)N[C@@H](Cc1ccccc1)C(=O)N[C@]1(C)CCCCCCC=CCCC[C@@](C)(C(=O)N[C@@H](C)C(=O)N[C@@H](C)C(=O)N[C@H](C)C(=O)N[C@@H](C)C(=O)N[C@@H](C)C(=O)N[C@H](C)C(N)=O)NC(=O)[C@H](CC(C)C)NC(=O)[C@H](CCC(N)=O)NC(=O)[C@H](C)NC(=O)[C@H](Cc2c[nH]c3ccccc23)NC(=O)[C@H](Cc2ccc(O)cc2)NC(=O)[C@H](CCC(=O)O)NC1=O)[C@@H](C)O [compound 569]	–	–	–	–	< 5 µM	–	–	–	–
CC(=O)N[C@@H](CC(C)C)C(=O)N[C@H](C(=O)N[C@@H](Cc1ccccc1)C(=O)N[C@]1(C)CCCCCC/C=C/CCC[C@@](C)(C(=O)N[C@@H](C)C(=O)N[C@@H](C)C(=O)N[C@@H](C)C(=O)N[C@@H](C)C(=O)N[C@H](C)C(=O)N[C@H](C)C(N)=O)NC(=O)[C@H](CC(C)C)NC(=O)[C@H](CCC(N)=O)NC(=O)[C@H](C)NC(=O)[C@H](Cc2c[nH]c3ccccc23)NC(=O)[C@H](Cc2ccc(O)cc2)NC(=O)[C@H](CCC(=O)O)NC1=O)[C@@H](C)O [compound 572]	–	–	–	–	< 5 µM	–	–	–	–
CC(=O)N[C@@H](CC(C)C)C(=O)N[C@H](C(=O)N[C@@H](Cc1ccccc1)C(=O)N[C@]1(C)CCCCCC/C=C/CCC[C@@](C)(C(=O)N[C@@H](C)C(=O)N[C@@H](C)C(=O)N[C@@H](C)C(=O)N[C@@H](C)C(=O)N[C@@H](C)C(=O)N[C@@H](C)C(N)=O)NC(=O)[C@H](CC(C)C)NC(=O)[C@H](CCC(N)=O)NC(=O)[C@H](C)NC(=O)[C@H](Cc2c[nH]c3ccccc23)NC(=O)[C@H](Cc2ccc(O)cc2)NC(=O)[C@H](CCC(=O)O)NC1=O)[C@@H](C)O [compound 573]	–	–	–	–	< 5 µM	–	–	–	–
CC(=O)N[C@@H](CC(C)C)C(=O)N[C@H](C(=O)N[C@@H](Cc1ccccc1)C(=O)N[C@]1(C)CCCC=CCCCCCC[C@@](C)(C(=O)N[C@@H](C)C(=O)N[C@@H](C)C(=O)N[C@@H](C)C(=O)N[C@@H](C)C(=O)N[C@@H](C)C(=O)N[C@H](C)C(N)=O)NC(=O)[C@H](CC(C)C)NC(=O)[C@H](CCC(N)=O)NC(=O)[C@H](C)NC(=O)[C@H](Cc2c[nH]c3ccccc23)NC(=O)[C@H](Cc2ccc(O)cc2)NC(=O)[C@H](CCC(=O)O)NC1=O)[C@@H](C)O [compound 631] (Ac-LTF[R5]EYWAQL[S8]AAAAA[dA]-NH2; staple 4-11)	–	–	–	–	< 5 µM	–	–	–	–

Reference: US20200369728A1, “PEPTIDOMIMETIC MACROCYCLES AND USES THEREOF” (Aileron Therapeutics, Inc., priority 2015, published 2020)
